Our source for the T/C values is PubChem BioAssay AID330 (DTP/NCI, 2004).

Each structure is given as a SMILES string. Several values for one entry are separate records, joined by “and”; a condition that tells them apart may be missing. Identical values can stand only once. Toxic doses and inconclusive results are not listed.

The assay has as its system P388 leukemia ip, CD2F1 mice, survival T/C. Put plainly: NCI In Vivo Anticancer Drug Screen. Data for tumor model P388 Leukemia (intraperitoneal) in CD2F1 (CDF1) mice. The note with it: endpoint: median survival time, higher = longer survival. An outline of the steps:
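Mice carrying the transplanted tumor received test compound or vehicle. Survival was recorded in each group, and the value is the treated-group measurement divided by that of the vehicle-treated control group.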

Setting [1] is: dose: 50.0 mg/kg/injection, schedule: Q01DX005 (ip), vehicle: saline.
Where [2] appears, read: dose: 25.0 mg/kg/injection, schedule: Q01DX009 (ip), vehicle: saline with Tween-80.
Where [3] appears, read: dose: 50.0 mg/kg/injection, schedule: Q01DX009 (ip), vehicle: saline with Tween-80.
Setting [4] is: dose: 100.0 mg/kg/injection, schedule: Q04DX003 (ip), vehicle: saline with Tween-80.

In the case of `O=C(NCCCCCCCCCCNC(=O)N1CC1)N1CC1`, the T/C is 104 % of control (dose: 0.25 mg/kg/injection, schedule: Q04DX003 (ip), vehicle: saline with Tween-80); 108 % of control (dose: 0.5 mg/kg/injection, schedule: Q04DX003 (ip), vehicle: saline with Tween-80); 165 % of control (dose: 1.56 mg/kg/injection, schedule: Q01DX009 (ip), vehicle: saline with Tween-80); 159 % of control (dose: 2.0 mg/kg/injection, schedule: Q04DX003 (ip), vehicle: saline with Tween-80); 209 % of control (dose: 3.0 mg/kg/injection, schedule: Q04DX003 (ip), vehicle: saline with Tween-80); 185 % of control (dose: 3.13 mg/kg/injection, schedule: Q04DX003 (ip), vehicle: saline with Tween-80). The T/C (dose: 4.5 mg/kg/injection, schedule: Q04DX003 (ip), vehicle: saline with Tween-80) was 204 % of control; the T/C (dose: 6.25 mg/kg/injection, schedule: Q01DX009 (ip), vehicle: saline with Tween-80) was 95 % of control; the T/C (dose: 6.25 mg/kg/injection, schedule: Q04DX003 (ip), vehicle: saline with Tween-80) was 150 % of control.

Take `COc1ccccc1/C(=N/Nc1ccccc1)[N+](=O)[O-]`: the T/C was 106 % of control (dose: 50.0 mg/kg/injection, schedule: Q01DX009 (ip), vehicle: saline + Tween-80 + alcohol); 101 % of control (dose: 100.0 mg/kg/injection, schedule: Q01DX009 (ip), vehicle: saline + Tween-80 + alcohol); 109 % of control (dose: 200.0 mg/kg/injection, schedule: Q01DX009 (ip), vehicle: saline + Tween-80 + alcohol).

In the case of `CC(N)/C(N)=N/O` (stereo not drawn), the T/C is, setting by setting: under setting [1], 99 % of control; (dose: 100.0 mg/kg/injection, schedule: Q01DX005 (ip), vehicle: saline) 100 % of control; (dose: 200.0 mg/kg/injection, schedule: Q01DX005 (ip), vehicle: saline) 110 % of control.

On to `N#CC(C#N)=Cc1cc2c3c(c1)CCCN3CCC2`, for which the T/C by setting is: (dose: 100.0 mg/kg/injection, schedule: Q01DX001 (ip), vehicle: saline with Tween-80) 100 % of control; (dose: 200.0 mg/kg/injection, schedule: Q01DX001 (ip), vehicle: saline with Tween-80) 100 % of control; (dose: 400.0 mg/kg/injection, schedule: Q01DX001 (ip), vehicle: saline with Tween-80) 90 % of control.

As to `O=C(/C=C\c1ccc(NCc2ccc(C(=O)O)cc2)cc1)CCl`, the T/C by setting is: under setting [2], 122 % of control; (dose: 25.0 mg/kg/injection, schedule: Q04DX003 (ip), vehicle: saline with Tween-80) 100 % of control; under setting [3], 122 % of control; (dose: 50.0 mg/kg/injection, schedule: Q04DX003 (ip), vehicle: saline with Tween-80) 104 % of control; under setting [4], 109 % of control.

On to `CCC[CH2][Sn]1([CH2]CCC)[O]C2C(CO)OC(n3ccc(N)nc3=O)C2[O]1` (stereo not drawn), for which the T/C is 106 % of control (dose: 0.3 mg/kg/injection, schedule: Q03HX015 (ip), vehicle: Klucel (hydroxypropylcellulose) (HPC)); 117 % of control (dose: 0.44 mg/kg/injection, schedule: Q03HX015 (ip), vehicle: Klucel (hydroxypropylcellulose) (HPC)); 119 % of control and 121 % of control (dose: 0.67 mg/kg/injection, schedule: Q03HX015 (ip), vehicle: Klucel (hydroxypropylcellulose) (HPC)); 109 % of control (dose: 0.9 mg/kg/injection, schedule: Q01DX005 (ip), vehicle: Klucel (hydroxypropylcellulose) (HPC)); 123 % of control (dose: 1.0 mg/kg/injection, schedule: Q03HX015 (ip), vehicle: Klucel (hydroxypropylcellulose) (HPC)); 120 % of control and 124 % of control (dose: 1.5 mg/kg/injection, schedule: Q03HX015 (ip), vehicle: Klucel (hydroxypropylcellulose) (HPC)). For the same molecule, the T/C (dose: 1.56 mg/kg/injection, schedule: Q01DX009 (ip), vehicle: other) is 102 % of control and 86 % of control; the T/C (dose: 2.0 mg/kg/injection, schedule: Q01DX005 (ip), vehicle: Klucel (hydroxypropylcellulose) (HPC)) was 121 % of control; the T/C (dose: 3.0 mg/kg/injection, schedule: Q01DX005 (ip), vehicle: Klucel (hydroxypropylcellulose) (HPC)) was 122 % of control; the T/C (dose: 3.12 mg/kg/injection, schedule: Q01DX009 (ip), vehicle: other) is 97 % of control.

With `CCC1=C[C@H]2CN(CCc3c([nH]c4cc(Br)ccc34)[C@@](C(=O)OC)(c3cc4c(cc3OC)N(C)[C@H]3[C@@](O)(C(=O)OC)[C@H](OC(C)=O)[C@]5(CC)C=CCN6CC[C@]43[C@@H]65)C2)C1`, the T/C was 113 % of control (dose: 1.0 mg/kg/injection, schedule: Q01DX001 (ip), vehicle: water); 115 % of control (dose: 2.0 mg/kg/injection, schedule: Q01DX001 (ip), vehicle: water); 118 % of control (dose: 3.9 mg/kg/injection, schedule: Q01DX001 (ip), vehicle: water); 122 % of control (dose: 4.0 mg/kg/injection, schedule: Q01DX001 (ip), vehicle: water); 119 % of control (dose: 6.5 mg/kg/injection, schedule: Q01DX001 (ip), vehicle: water); 153 % of control (dose: 16.0 mg/kg/injection, schedule: Q01DX001 (ip), vehicle: water). The T/C (dose: 18.0 mg/kg/injection, schedule: Q01DX001 (ip), vehicle: water) is 169 % of control; the T/C (dose: 30.0 mg/kg/injection, schedule: Q01DX001 (ip), vehicle: water) was 173 % of control; the T/C (dose: 32.0 mg/kg/injection, schedule: Q01DX001 (ip), vehicle: water) is 185 % of control.

Turning to `CC(O)CC(O)CC1CCCO1` (stereo not drawn), the T/C by setting is: (dose: 12.5 mg/kg/injection, schedule: Q01DX005 (ip), vehicle: saline) 98 % of control; (dose: 25.0 mg/kg/injection, schedule: Q01DX005 (ip), vehicle: saline) 97 % of control; under setting [1], 98 % of control and 88 % of control.

Take `CCCCCCCCCCCCOP(=O)(N1CC1(C)C)N1CC1(C)C` (stereo not drawn): the T/C is, setting by setting: (dose: 2.0 mg/kg/injection, schedule: Q01DX009 (ip), vehicle: saline with Tween-80) 108 % of control and 113 % of control; (dose: 4.0 mg/kg/injection, schedule: Q01DX009 (ip), vehicle: saline with Tween-80) 103 % of control and 108 % of control; (dose: 8.0 mg/kg/injection, schedule: Q01DX009 (ip), vehicle: saline with Tween-80) 114 % of control and 117 % of control; (dose: 16.0 mg/kg/injection, schedule: Q01DX009 (ip), vehicle: saline with Tween-80) 102 % of control and 117 % of control.

For `CCOc1ccc(-n2c(C)c(COC(=O)NC)c(COC(=O)NC)c2C)cc1`, the T/C runs as follows: (dose: 12.5 mg/kg/injection, schedule: Q01DX009 (ip), vehicle: Klucel (hydroxypropylcellulose) (HPC)) 152 % of control and 166 % of control; (dose: 25.0 mg/kg/injection, schedule: Q01DX009 (ip), vehicle: Klucel (hydroxypropylcellulose) (HPC)) 150 % of control; (dose: 50.0 mg/kg/injection, schedule: Q01DX009 (ip), vehicle: Klucel (hydroxypropylcellulose) (HPC)) 109 % of control.

For the molecule `O=C(N/N=C/c1ccco1)c1ccc(OCc2nc3ccccc3[nH]2)cc1`, the T/C was 97 % of control (dose: 25.0 mg/kg/injection, schedule: Q01DX005 (ip), vehicle: saline with Tween-80); 94 % of control (dose: 50.0 mg/kg/injection, schedule: Q01DX005 (ip), vehicle: saline with Tween-80); 87 % of control (dose: 100.0 mg/kg/injection, schedule: Q01DX005 (ip), vehicle: saline with Tween-80); 94 % of control (dose: 200.0 mg/kg/injection, schedule: Q01DX005 (ip), vehicle: saline with Tween-80).

`CC(=O)CC(=O)C1C(S[As](C)C)CC2C3CCC4=CC(=O)C=CC4(C)C3C(=O)CC21C` (stereo not drawn): the T/C by setting is: (dose: 50.0 mg/kg/injection, schedule: Q01DX005 (ip), vehicle: Klucel (hydroxypropylcellulose) (HPC)) 102 % of control; (dose: 100.0 mg/kg/injection, schedule: Q01DX005 (ip), vehicle: Klucel (hydroxypropylcellulose) (HPC)) 91 % of control and 94 % of control; (dose: 200.0 mg/kg/injection, schedule: Q01DX005 (ip), vehicle: Klucel (hydroxypropylcellulose) (HPC)) 94 % of control and 98 % of control.

As to `Cc1ccc2occ(-c3nnc(NC(=O)c4ccccc4)s3)c(=O)c2c1`, the T/C reads like this: (dose: 60.0 mg/kg/injection, schedule: Q01DX005 (ip), vehicle: saline with Tween-80) 93 % of control; (dose: 120.0 mg/kg/injection, schedule: Q01DX005 (ip), vehicle: saline with Tween-80) 86 % of control.

With `CCCC(NC(=O)C(C)Br)C(=O)O` (stereo not drawn), the T/C is, setting by setting: under setting [4], 95 % of control; (dose: 200.0 mg/kg/injection, schedule: Q04DX003 (ip), vehicle: saline with Tween-80) 100 % of control; (dose: 400.0 mg/kg/injection, schedule: Q04DX003 (ip), vehicle: saline with Tween-80) 100 % of control.

Consider `O=C1Nc2ccccc2C1(O)Cc1ccccn1` (stereo not drawn), for which the T/C was 105 % of control under setting [2]; 95 % of control under setting [3]; 107 % of control (dose: 100.0 mg/kg/injection, schedule: Q01DX009 (ip), vehicle: saline with Tween-80); 103 % of control (dose: 200.0 mg/kg/injection, schedule: Q01DX009 (ip), vehicle: saline with Tween-80).
